Measurements taken from PMC11292009, “Mapping protein binding sites by photoreactive fragment pharmacophores” (Communications Chemistry, 2024).
“And” between values parts separate entries of the source, which are not always exact repeats. Equal values may be shown once.

System: SW48-PAR cells
Experiment: MTT cell viability assay, SW48-PAR
Format: cell-based, human
Details: for cell viability: replicates, in % (unit assumed)
From the text: Pancreatic cancer cell lines PANC-1 (cat. no. CRL-1469), SW1990 (cat. no. CRL-2172) were obtained from ATCC (American Type Culture Collection). Genetically modified isogeneic colon cancer cell lines SW48-PAR and SW48-G12D were obtained from Horizon Discovery Ltd. PANC-1 (human pancreatic cancer, KRas^G12D), SW1990 (human pancreatic cancer, KRas^G12D), SW48-PAR (human colon cancer; parental cell line KRas^wt), and SW48-G12D (human colon cancer; heterozygous knockin of the KRas^G12D activating mutation) cancer cell lines were cultured in Roswell Park Memorial Institute Medium (RPMI; Biosera, Nuaille, France), supplemented with 10% heat-inactivated Fetal Bovine Serum (FBS; Biosera), and with 1% Penicillin/Streptomycin (Biosera). Cells were cultured in sterile T75 flasks with ventilation cap (Sarstedt, Nümbrecht, Germany) at 37 °C in a humidified atmosphere with 5% CO2 in ESCO CelCulture Incubator (ESCO, Friedberg, Germany). Manipulations with the cells were performed in biosafety cabinet (laminar) ESCO Sentinel Gold class II model AC2-4E8 (ESCO).
After standard harvesting of the cells by trypsin-EDTA (Biosera), 7 × 10^3 cells per well depending on the cell line, were seeded in serum-containing growth medium to 96-well plates and incubated. After 24 h, cells were treated with various concentrations of fragments (32 nM–100 μM), dissolved in serum-containing medium, and incubated under standard conditions. Control wells were treated with medium. Final concentration of serum was 2.5%, final concentration of DMSO was 0.2%. Treatment was for 72 h continuously.
Afterwards, MTT assay was performed in order to determine cell viability, by adding 20 μL of MTT solution (5 mg/mL in PBS) to each well and after 2 h of incubation at 37 °C, the supernatant was removed. The formazan crystals were dissolved in 100 μL of a 1:1 solution of DMSO (Sigma-Aldrich):EtOH (Molar Chemicals) and the absorbance was measured after 15 min at λ = 570 nm by using a microplate reader (BioTek 800TS, Agilent, Santa Clara, CA, USA). The IC50 values of the fragments were calculated using GraphPad Prism 6 (GraphPad Software, San Diego, CA, USA). The experiments were done in triplicate, and each experiment was repeated two times.

Cc1ncc(CO)c(CNC(=O)CCC2(C)N=N2)c1O [PhP072, Cc1ncc(CO)c(c1O)CNC(=O)CCC2(C)N=N2]
Antiproliferative effect (MTT, 72 h): antiproliferative activity | cell viability ([PhP072] 3.2e-8 M): 110.532 and 99.0425 and 106.761 and 103.567 and 100.905 | cell viability ([PhP072] 1.6e-7 M): 106.815 and 103.774 and 96.677 and 105.91 and 101.544 and 99.8403 | cell viability ([PhP072] 8e-7 M): 103.098 and 102.084 and 99.3805 and 101.65 and 100.905 and 100.16 | cell viability ([PhP072] 4e-6 M): 97.3529 and 105.125 and 97.3912 and 92.7061 and 92.8126 | cell viability ([PhP072] 2e-5 M): 98.3667 and 91.9459 and 92.9597 and 81.7386 and 78.0118 and 75.2433 | cell viability ([PhP072] 0.0001 M): 78.0907 and 76.0631 and 71.332 and 66.8313 and 68.322 and 64.4887
